Values quoted from earlier work, collected in patent US20070072885A1, “BICYCLIC DERIVATIVES FOR THE TREATMENT OF ABNORMAL CELL GROWTH” (Pfizer Inc, priority 2005, published 2007).

Legend:
[1] = test system: another carcinoma which does not express the EGF receptor
[2] = test system: transplanted human mammary carcinoma which expresses epidermal growth factor receptor tyrosine kinase (EGFR); settings: EGFR-expressing carcinoma in athymic nude mice

Q: Which “growth of another carcinoma” value [1] does the source give for `O=CN/C=C/c1cc(O)ccc1O` [erbstatin] here?
A: The value was “without effect”.

Q: And the “growth of transplanted human mammary carcinoma” value [2]?
A: The value was “selectively attenuates the growth”.
